Where two headings read alike, the source gives them in different places.
Key:
[1] = system: RAW264.7 siRNA cell lines; assay: Cytokine production in stably transfected RAW264.7 siRNA (MyD88, TRIF, LUC) cell lines; format: cell-based, mouse; settings: for potency for TNFα production: 20 hours
Protocol: Exponentially growing RAW264.7 cells are stably transfected with FuGene 6 by conventional methods in Optimem (Roche, Indianapolis Ind.) with psiRNA-mTICAM1, psiRNA-mMyD88, or psiRNA-LUC (irrelevant control) plasmids containing shRNA sequences for protein knockdown, a Zeocin resistance gene and a GFP coding sequence (InVivoGen, San Diego, Calif.). Transfection efficiency after selection is determined by percent GFP positive cells using the ImageStream.
RNA interference (RNAi) is utilized to disrupt expression of specific genes that are involved in TLR signaling pathways: […] and MyD88. RAW264.7 siRNA cell lines are prepared using commercially available plasmids (Invivogen). These plasmids contain a Zeocin selection marker, a sequence coding for GFP and the sequence coding for shRNA for knockdown. Once the cells are efficiently transfected, stable cell lines are generated through antibiotic selection. Purity of cultures is determined by GFP+ cells within the culture system. An irrelevant plasmid is also used to stably transfect cells as a control.
To determine whether TRIF or MyD88 are required for the cytokine response after stimulation with L and D isomers, stably transfected siRNA cell lines are stimulated for 20 hours (in an assay similar to the MM6 potency assay) or 4 hours (to capture MyD88 induced cytokine responses) and cellular supernatants are assayed for TNFα (MyD88) and IP-10 (TRIF). Twenty hours post-stimulation, the irrelevant control, LUC cell line has a similar IP-10 induction pattern as the wt RAW264.7 cells shown previously. […] When TRIF is intact (in MyD88 knockdown cell lines) the IP-10 levels remain dose responsive and total cytokine is increased above the irrelevant control (LUC). Other assay systems (including human and mouse systems) support the hypothesis that both L and D isomers are efficient at inducing TRIF mediated cytokines.
In order to better discriminate the MyD88 requirement for TNFα production, siRNA knockdown cell lines are examined for TNFα production after four hours of AGP stimulation (FIG. 35). […]

[2] = system: human monocyte-derived dendritic cells; assay: IL-12p70 and IL-23 induction in human monocyte-derived dendritic cells; format: cell-based
Protocol: (§1) Peripheral blood mononuclear cells (PBMCs) are isolated from the blood of healthy donors via a Ficoll Hypaque 1.077 gradient and treated with agonists or are used to isolate adherent monocytes in monocyte media (RPMI 1640 (ATCC), 10% human AB serum (Lonza/BioWhittaker), 100 U/mL penicillin/100 ug/mL streptomycin (Sigma), 50 uM 2-mercaptoethanol (Sigma) as described (Stover et al. 4440-49; Kawai et al. 5887-94; Gervassi et al. 7231-39). Monocyte-derived macrophages are produced by incubating adherent monocytes for 5 days in monocyte media with 50 ng/mL rhM-CSF (R&D Systems) with media changes at day 3 and day 5 before agonist treatment. Monocyte-derived dendritic cells (DC) are produced by incubating adherent monocytes for 7 days in monocyte media with 10 ng/mL rhGM-CSF and 10 ng/mL rhIL-4 (R&D Systems) with media changes on day 3 and day 6.
Induction of inflammatory cytokines and maturation of dendritic cells (DC) contribute to the promotion of a robust immune response during the administration of an adjuvanted vaccine. Therefore, the capacity of CRX527 and CRX-547 to induce IL-12p70 in human DCs is compared. The induction of IL-12p70 promotes the development of the Th1 helper T cell lineage and favors development of a cell-mediated immune response (Goriely, Neurath, and Goldman 81-86; Gutcher and Becher 1119-27). […]

[3] = target: T1, TLR4 receptor complex (Homo sapiens, UniProt O00206+Q9Y6Y9); assay: Inhibition of CRX-527- or LPS-induced cytokines by CRX-547 in primary human adherent monocytes; format: cell-based; settings: for IC50: added simultaneously
T1 construct: endogenous in cells; host or cells: primary human adherent monocytes isolated from PBMCs of healthy donors
T1 sequence (O00206 24-839): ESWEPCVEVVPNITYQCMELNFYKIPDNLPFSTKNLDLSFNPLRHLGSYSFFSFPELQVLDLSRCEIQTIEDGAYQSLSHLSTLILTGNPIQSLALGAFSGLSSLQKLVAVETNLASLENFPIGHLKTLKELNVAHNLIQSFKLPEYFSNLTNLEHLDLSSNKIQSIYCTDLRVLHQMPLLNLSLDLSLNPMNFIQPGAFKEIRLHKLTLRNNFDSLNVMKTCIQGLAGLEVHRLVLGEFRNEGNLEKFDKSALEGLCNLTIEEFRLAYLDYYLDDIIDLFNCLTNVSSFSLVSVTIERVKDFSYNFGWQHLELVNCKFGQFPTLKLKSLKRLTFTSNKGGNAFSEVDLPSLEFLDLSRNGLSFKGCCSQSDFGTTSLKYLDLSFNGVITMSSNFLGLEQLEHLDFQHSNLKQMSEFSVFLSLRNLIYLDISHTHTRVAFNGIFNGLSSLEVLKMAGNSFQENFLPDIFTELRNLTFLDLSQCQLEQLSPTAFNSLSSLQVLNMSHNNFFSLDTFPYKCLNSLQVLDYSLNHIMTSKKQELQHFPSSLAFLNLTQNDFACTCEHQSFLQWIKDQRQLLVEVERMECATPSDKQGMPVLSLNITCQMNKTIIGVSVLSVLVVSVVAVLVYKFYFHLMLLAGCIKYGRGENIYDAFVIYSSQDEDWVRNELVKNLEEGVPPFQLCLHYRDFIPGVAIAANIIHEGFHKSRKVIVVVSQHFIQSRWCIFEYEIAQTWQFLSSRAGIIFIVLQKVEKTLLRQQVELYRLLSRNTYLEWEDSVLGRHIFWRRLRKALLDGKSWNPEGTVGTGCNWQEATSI
T1 sequence (Q9Y6Y9 19-160): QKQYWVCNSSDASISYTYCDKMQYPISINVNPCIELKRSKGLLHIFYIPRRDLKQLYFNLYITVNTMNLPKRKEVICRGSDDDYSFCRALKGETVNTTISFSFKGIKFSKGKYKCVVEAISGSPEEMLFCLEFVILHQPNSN
Protocol: as §1
CRX-527 signals through the TLR4/MD2 receptor complex leading to activation of transcription factors that lead to induction of cytokines and chemokines. […] (FIG. 10).
To that end, human primary monocytes are treated with a dose range of CRX-527 in the presence of increasing concentrations of CRX-547.
The resulting dose-response curves are fit with a 4 parameter logistic equation.
Plotting the log EC50 shift (DR-1) for each concentration of CRX-547 versus the log of the concentration of CRX-547 (Schild regression) allows us to compare the calculated affinity (Kbapp) with the EC50 for CRX-547 calculated from the CRX-547 and CRX-527 dose-response curve. […] (FIG. 10B.)

Row | Structure (SMILES) | potency for TNFα production ([1]; MyD88 or TRIF knocked down) | potency at inducing TNFα versus equivalent dose of CRX-547 ([1]; four hours) | potency for TNFα production ([1]; irrelevant control (LUC)) | IL-23 expression ([2]; dendritic cells, compared with CRX-527) | IL-12p70 response ([2]; human monocyte-derived DC, compared to CRX-527 and LPS) | effect of CRX-547 on MCP-1 (TRIF-dependent) induction by fixed CRX-527 or LPS ([3]; at higher concentrations of CRX-547) | IC50 ([3]; fixed CRX-527 100 nM, read-out: IC50 for inhibition of TNFα induction by CRX-527) [nM] | IC50 ([3]; fixed LPS 100 nM, read-out: IC50 for inhibition of TNFα induction by LPS) [nM] | effect of CRX-547 on TNFα induction by fixed concentration of CRX-527 or LPS ([3]; increasing CRX-547 added prior to CRX-527 or LPS) | agonist character for induction of MyD88-dependent cytokines/chemokines ([3]; relative to CRX-527 and LPS, monocytic cells) | Kd ([3]; shift of CRX-527-induced TNFα dose-response curves, read-out: affinity estimate (Kbapp) by Schild regression) [nM]
1 | CCCCCCCCCCCC(CC(=O)NC(COC1OC(CO)C(OP(=O)(O)O)C(OC(=O)CC(CCCCCCCCCCC)OC(=O)CCCCCCCCC)C1NC(=O)CC(CCCCCCCCCCC)OC(=O)CCCCCCCCC)C(=O)O)OC(=O)CCCCCCCCC.CCN(CC)CC (centres unmarked) [CRX-527] | same increased potency | more potent | more potent | – | – | – | – | – | – | – | –
2 | CCCCCCCCCCCC(CC(=O)NC(COC1OC(CO)C(OP(=O)(O)O)C(OC(=O)CC(CCCCCCCCCCC)OC(=O)CCCCCCCCC)C1NC(=O)CC(CCCCCCCCCCC)OC(=O)CCCCCCCCC)C(=O)O)OC(=O)CCCCCCCCC.CCN(CC)CC (centres unmarked) [CRX-547] | – | – | – | reduced virtually to base-line levels | significantly reduced | increased additively | 48 ± 30 | 18 ± 12 | inhibited | partial agonist | 0.33

From patent US8629116B2, “Method for inducing a TRIF-bias” (priority 2008, dated 2014)
